Counter-ions that a name gives are not always drawn.
System: lipid peroxidation in rat cerebral cortical homogeneates
Test: Inhibitory effect on lipid peroxidation in rat cerebral cortical homogenates (thiobarbituric acid method)
Assay type: biochemical
Conditions: lipoperoxide production in Jcl. Wistar rat cerebral cortex homogenate supernatant, 37° C. for 30 minutes, absorbance at 532 nm, vs DMSO-added group
Method: Inhibitory effect on lipid peroxidation in rat cerebral cortical homogeneates and oral administration to mouse.
Quantitative determination of lipoperoxide produced in brain homogenate was performed according to the method of Stocks et al. (Clin. Sci. Mol. Med. 47–215(1974)). As animals, brains of Jcl. Wistar male rats, 10–13 weeks age, were used. Rat cerebral cortices were obtained after decapitation, homogenized in an ice-cooled phosphate saline buffer (50 mM Ph 7.4) (Nichion Microhomogenizer, S-310E), centrifuged at 10,000 g for 10 minutes (Hitachi CF15D type, RT15A6 Anglerotor), and the supernatant was used in a test. This supernatant was diluted 3-fold with the same buffer. To this 1 mL were added 10 μL of test drugs dissolved in dimethyl sulfoxide (DMSO) to the final concentration of 0.0125, 0.025, 0.05, 0.10, 0.20, 0.40, 0.80 and 1.60 μM, respectively, which was incubated at 37° C. for 30 minutes. The reaction was stopped by addition of 200 μL of 35% perchloric acid, and centrifuged at 13,000 g for 10 minutes. To 1 mL of this supernatant was added 0.5 mL of 2-thiobarbituric acid (500 mg/100 mL) dissolved in 50% acetic acid, heated to boil at 95° C. for 15 minutes, which was determined by the absorbance at 532 nm. […]

IC50	Structure (SMILES)
127 nM	Cc1c(C)c2c(c3c1NC(C)(C)C3)CC(C)(C)O2 [Example 3, 1,6,7,8-Tetrahydro-2,2,4,5,7,7-hexamethyl-2H-furo [3,2-e]indole oxalate]
57 nM	Cc1c(C)c2c(c3c1NC(C)(C)C3)CC(C)(CN1CCC(NC(c3ccccc3)c3ccccc3)CC1)O2 (centres unmarked) [Example 11, N-(Diphenylmethyl)-1-[(1,6,7,8-tetrahydro-2,4,5,7,7-pentamethyl-2H-furo[3,2-e]indol-2-yl)methyl]-4-piperidineamine dihydrochloride]
